{"source": "ChEMBL document CHEMBL5463729", "about": "“Data for DCP probe BAY 1753011” (2023)", "details_in_all_cases": "Compound concentration 10.0 uM", "key": {"[1]": {"molecular_target": "TRAF2 and NCK-interacting protein kinase (Homo sapiens) (UniProt Q9UKE5)", "experiment": "Inhibition of TNIK(h) at 10.0 µM in the Eurofins Kinase panel"}, "[2]": {"molecular_target": "5-hydroxytryptamine receptor 1D (Homo sapiens) (UniProt P28221)", "sequence (P28221 whole entry)": "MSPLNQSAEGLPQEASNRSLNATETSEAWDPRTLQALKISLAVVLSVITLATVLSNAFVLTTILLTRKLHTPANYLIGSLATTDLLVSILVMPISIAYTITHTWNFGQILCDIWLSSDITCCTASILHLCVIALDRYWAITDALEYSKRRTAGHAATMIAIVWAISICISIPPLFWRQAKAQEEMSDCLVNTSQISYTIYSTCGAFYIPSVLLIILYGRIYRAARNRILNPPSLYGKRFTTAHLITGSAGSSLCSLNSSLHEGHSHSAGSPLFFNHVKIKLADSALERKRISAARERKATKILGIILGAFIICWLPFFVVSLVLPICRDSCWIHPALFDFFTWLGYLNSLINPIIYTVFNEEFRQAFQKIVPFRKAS"}, "[3]": {"molecular_target": "Tyrosine-protein kinase JAK2 (Homo sapiens) (UniProt O60674)", "experiment": "Inhibition of JAK2(h) at 10.0 µM in the Eurofins Kinase panel"}, "[4]": {"molecular_target": "MAP kinase-interacting serine/threonine-protein kinase 1 (Homo sapiens) (UniProt Q9BUB5)", "experiment": "Inhibition of Mnk1(h) at 10.0 µM in the Eurofins Kinase panel"}, "[5]": {"molecular_target": "Cannabinoid receptor 1 (Homo sapiens) (UniProt P21554)", "sequence (P21554 whole entry)": "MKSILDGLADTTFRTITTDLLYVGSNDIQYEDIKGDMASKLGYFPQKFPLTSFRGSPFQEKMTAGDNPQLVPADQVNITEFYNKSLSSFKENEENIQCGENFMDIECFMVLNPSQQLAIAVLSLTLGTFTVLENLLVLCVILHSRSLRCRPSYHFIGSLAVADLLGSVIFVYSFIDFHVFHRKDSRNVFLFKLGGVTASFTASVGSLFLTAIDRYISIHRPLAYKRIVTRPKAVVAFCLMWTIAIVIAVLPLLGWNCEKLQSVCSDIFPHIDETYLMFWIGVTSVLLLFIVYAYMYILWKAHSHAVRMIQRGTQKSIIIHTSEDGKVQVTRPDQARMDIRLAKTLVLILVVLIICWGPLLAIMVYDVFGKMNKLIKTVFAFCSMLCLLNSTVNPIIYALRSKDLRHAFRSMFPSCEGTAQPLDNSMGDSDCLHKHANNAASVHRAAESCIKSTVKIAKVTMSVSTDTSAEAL", "experiment": "Inhibition of Cannabinoid CB1 at compound concentration of 10.0 uM in the Eurofins-Panlabs radioligand binding assay (Eurofins_assay_217050)", "design": "ligand concentration 2 nM"}, "[6]": {"molecular_target": "RAC-beta serine/threonine-protein kinase (Homo sapiens) (UniProt P31751)", "sequence (P31751 whole entry)": "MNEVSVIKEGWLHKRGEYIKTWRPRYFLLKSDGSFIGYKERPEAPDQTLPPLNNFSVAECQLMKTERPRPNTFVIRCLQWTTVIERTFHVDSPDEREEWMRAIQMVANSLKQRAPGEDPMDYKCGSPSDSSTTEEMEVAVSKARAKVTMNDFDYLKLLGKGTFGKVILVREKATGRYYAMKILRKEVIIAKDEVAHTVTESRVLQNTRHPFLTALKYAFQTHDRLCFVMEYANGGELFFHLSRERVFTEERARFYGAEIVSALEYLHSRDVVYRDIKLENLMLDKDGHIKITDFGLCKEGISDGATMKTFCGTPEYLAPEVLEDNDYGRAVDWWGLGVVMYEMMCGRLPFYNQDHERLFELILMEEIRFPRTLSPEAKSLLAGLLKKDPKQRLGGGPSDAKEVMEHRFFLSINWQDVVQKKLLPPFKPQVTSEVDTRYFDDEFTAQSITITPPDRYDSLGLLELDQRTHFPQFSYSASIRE", "experiment": "Inhibition of PKBbeta(h) at 10.0 µM in the Eurofins Kinase panel"}, "[7]": {"molecular_target": "Fibroblast growth factor receptor 4 (Homo sapiens) (UniProt P22455)", "experiment": "Inhibition of FGFR4(h) at 10.0 µM in the Eurofins Kinase panel"}, "[8]": {"molecular_target": "Fibroblast growth factor receptor 3 (Homo sapiens) (UniProt P22607)", "sequence (P22607 23-806 limits assumed)": "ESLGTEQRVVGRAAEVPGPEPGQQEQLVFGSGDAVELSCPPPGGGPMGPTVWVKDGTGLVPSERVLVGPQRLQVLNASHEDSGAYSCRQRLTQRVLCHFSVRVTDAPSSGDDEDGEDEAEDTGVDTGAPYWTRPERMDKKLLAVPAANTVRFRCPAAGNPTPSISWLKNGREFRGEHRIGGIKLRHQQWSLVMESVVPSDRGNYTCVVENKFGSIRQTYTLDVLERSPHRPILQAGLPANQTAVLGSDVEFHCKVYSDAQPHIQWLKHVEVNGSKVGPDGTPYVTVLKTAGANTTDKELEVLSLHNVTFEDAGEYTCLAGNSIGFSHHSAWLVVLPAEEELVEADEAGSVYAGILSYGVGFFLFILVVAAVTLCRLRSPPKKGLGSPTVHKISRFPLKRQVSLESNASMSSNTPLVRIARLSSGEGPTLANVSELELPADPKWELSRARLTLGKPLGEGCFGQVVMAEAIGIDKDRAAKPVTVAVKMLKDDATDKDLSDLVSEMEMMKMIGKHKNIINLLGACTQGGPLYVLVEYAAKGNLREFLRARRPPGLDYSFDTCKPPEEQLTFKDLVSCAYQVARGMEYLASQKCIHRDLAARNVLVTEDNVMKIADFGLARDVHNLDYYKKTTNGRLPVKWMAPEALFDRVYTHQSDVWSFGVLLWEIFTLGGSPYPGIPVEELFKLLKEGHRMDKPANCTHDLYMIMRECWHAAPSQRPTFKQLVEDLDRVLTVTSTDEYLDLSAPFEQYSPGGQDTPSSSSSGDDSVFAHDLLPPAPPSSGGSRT", "experiment": "Inhibition of FGFR3(h) at 10.0 µM in the Eurofins Kinase panel"}, "[9]": {"molecular_target": "Sodium-dependent dopamine transporter (Homo sapiens) (UniProt Q01959)", "sequence (Q01959 whole entry)": "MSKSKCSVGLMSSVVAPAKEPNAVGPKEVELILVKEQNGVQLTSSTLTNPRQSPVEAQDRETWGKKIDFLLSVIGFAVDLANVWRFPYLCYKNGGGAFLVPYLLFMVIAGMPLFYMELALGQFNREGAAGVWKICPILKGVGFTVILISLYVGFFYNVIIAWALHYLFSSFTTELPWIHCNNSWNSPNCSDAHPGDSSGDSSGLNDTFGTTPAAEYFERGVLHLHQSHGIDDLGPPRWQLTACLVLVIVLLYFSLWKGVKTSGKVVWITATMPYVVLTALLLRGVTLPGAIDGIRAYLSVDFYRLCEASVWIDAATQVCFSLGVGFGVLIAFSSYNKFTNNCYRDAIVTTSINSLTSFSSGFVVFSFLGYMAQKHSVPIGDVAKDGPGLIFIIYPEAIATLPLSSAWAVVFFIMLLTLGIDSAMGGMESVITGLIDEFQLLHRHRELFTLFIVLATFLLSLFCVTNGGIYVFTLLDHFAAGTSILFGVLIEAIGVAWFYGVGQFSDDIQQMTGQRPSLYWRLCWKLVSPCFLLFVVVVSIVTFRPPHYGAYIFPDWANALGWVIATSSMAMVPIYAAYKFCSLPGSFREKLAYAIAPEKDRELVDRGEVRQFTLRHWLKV"}, "[10]": {"molecular_target": "Transient receptor potential cation channel subfamily M member 7 (Homo sapiens) (UniProt Q96QT4)", "experiment": "Inhibition of ChaK1(h) at 10.0 µM in the Eurofins Kinase panel"}, "[11]": {"molecular_target": "C-C chemokine receptor type 2 (Homo sapiens) (UniProt P41597)", "experiment": "Inhibition of Chemokine CCR2B at 10 µM in the Eurofins-Panlabs radioligand binding assay (Eurofins_assay_217550)"}, "[12]": {"molecular_target": "Progesterone receptor (Homo sapiens) (UniProt P06401)", "experiment": "Inhibition of Progesterone PR-B at 10 µM in the Eurofins-Panlabs radioligand binding assay (Eurofins_assay_268020)", "design": "ligand concentration 1.4 nM"}, "[13]": {"molecular_target": "Serine/threonine-protein kinase BRSK2 (Homo sapiens) (UniProt Q8IWQ3)", "experiment": "Inhibition of BrSK2(h) at 10.0 µM in the Eurofins Kinase panel"}, "[14]": {"molecular_target": "Sigma non-opioid intracellular receptor 1 (Homo sapiens) (UniProt Q99720)", "sequence (Q99720 whole entry)": "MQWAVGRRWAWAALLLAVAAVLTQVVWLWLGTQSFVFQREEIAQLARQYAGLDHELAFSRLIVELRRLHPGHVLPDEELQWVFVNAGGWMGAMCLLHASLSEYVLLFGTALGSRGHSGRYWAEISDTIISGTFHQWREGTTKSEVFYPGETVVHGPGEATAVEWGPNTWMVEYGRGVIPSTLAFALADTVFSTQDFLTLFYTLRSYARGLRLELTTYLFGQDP", "experiment": "Inhibition of Sigma 1 at 10 µM in the Eurofins-Panlabs radioligand binding assay (Eurofins_assay_278110)", "design": "ligand concentration 8 nM"}, "[15]": {"molecular_target": "Phosphodiesterase 3 (Homo sapiens) (UniProt Q14432+Q13370)", "experiment": "Inhibition of Phosphodiesterase PDE3 at compound concentration of 10.0 uM in the Eurofins-Panlabs enzyme assay (Eurofins_assay_152000)", "format": "protein assay", "design": "substrate with concentration 1.01 uM [3H] cAMP + cAMP, incubation time 20 min, incubation temperature 25 C"}, "[16]": {"molecular_target": "Vasoactive intestinal polypeptide receptor 1 (Homo sapiens) (UniProt P32241)", "experiment": "Inhibition of Vasoactive Intestinal Peptide VIP1 at 10 µM in the Eurofins-Panlabs radioligand binding assay (Eurofins_assay_287010)"}, "[17]": {"molecular_target": "T1, Alpha-1A adrenergic receptor (Homo sapiens) (UniProt P35348)", "T1 sequence (whole entry)": "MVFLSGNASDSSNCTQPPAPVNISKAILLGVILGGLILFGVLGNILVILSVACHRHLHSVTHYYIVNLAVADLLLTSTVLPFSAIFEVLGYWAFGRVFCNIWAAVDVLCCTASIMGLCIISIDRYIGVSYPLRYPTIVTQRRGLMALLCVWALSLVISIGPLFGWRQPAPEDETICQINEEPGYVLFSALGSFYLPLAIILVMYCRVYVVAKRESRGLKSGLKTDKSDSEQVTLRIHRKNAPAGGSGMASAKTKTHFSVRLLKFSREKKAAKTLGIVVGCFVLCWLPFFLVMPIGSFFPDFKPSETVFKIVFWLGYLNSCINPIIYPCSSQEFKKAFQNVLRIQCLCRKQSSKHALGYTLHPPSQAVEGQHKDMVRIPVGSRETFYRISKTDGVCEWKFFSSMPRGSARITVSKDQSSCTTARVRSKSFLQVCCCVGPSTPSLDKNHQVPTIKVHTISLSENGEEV"}, "[18]": {"molecular_target": "mTOR/FKBP12A/FKBP12B (Homo sapiens) (UniProt P62942+P68106+P42345)", "sequence (P62942 2-108 limits assumed, other chains not shown)": "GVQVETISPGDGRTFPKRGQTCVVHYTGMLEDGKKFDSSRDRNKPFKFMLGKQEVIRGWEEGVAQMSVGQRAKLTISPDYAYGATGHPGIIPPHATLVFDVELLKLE", "sequence (P68106 whole entry partner, other chains not shown)": "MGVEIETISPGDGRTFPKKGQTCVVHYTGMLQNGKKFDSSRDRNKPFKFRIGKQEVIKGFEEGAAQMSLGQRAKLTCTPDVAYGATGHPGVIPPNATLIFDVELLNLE", "experiment": "Inhibition of mTOR FKBP12(h) at 10.0 µM in the Eurofins Kinase panel", "format": "protein-complex assay"}, "[19]": {"molecular_target": "D(1A) dopamine receptor (Homo sapiens) (UniProt P21728)", "sequence (P21728 whole entry)": "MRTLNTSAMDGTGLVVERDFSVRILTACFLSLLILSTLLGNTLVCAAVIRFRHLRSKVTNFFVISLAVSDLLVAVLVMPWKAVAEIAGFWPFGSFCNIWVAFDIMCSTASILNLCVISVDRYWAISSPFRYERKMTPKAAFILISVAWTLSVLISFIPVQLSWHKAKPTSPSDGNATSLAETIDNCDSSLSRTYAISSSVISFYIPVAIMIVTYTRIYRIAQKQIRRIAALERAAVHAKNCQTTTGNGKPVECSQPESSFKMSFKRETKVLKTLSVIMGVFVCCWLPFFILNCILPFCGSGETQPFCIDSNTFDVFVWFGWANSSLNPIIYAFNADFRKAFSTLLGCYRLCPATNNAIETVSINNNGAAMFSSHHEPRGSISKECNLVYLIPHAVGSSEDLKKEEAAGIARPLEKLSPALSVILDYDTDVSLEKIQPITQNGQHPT"}, "[20]": {"molecular_target": "Serine/threonine-protein kinase Chk2 (Homo sapiens) (UniProt O96017)", "experiment": "Inhibition of CHK2(h) at 10.0 µM in the Eurofins Kinase panel"}, "[21]": {"molecular_target": "Cholecystokinin receptor type A (Homo sapiens) (UniProt P32238)", "experiment": "Inhibition of Cholecystokinin CCK1 (CCKA) at 10 µM in the Eurofins-Panlabs radioligand binding assay (Eurofins_assay_218020)"}, "[22]": {"molecular_target": "Tyrosine-protein kinase Fer (Homo sapiens) (UniProt P16591)", "experiment": "Inhibition of Fer(h) at 10.0 µM in the Eurofins Kinase panel"}, "[23]": {"molecular_target": "Mitogen-activated protein kinase 14 (Homo sapiens) (UniProt Q16539)", "experiment": "Inhibition of Protein Serine/Threonine Kinase, MAPK14 (p38α) at 10 µM in the Eurofins-Panlabs enzyme assay (Eurofins_assay_176610)", "design": "substrate with concentration"}, "[24]": {"molecular_target": "Mitogen-activated protein kinase kinase kinase kinase 2 (Homo sapiens) (UniProt Q12851)", "experiment": "Inhibition of GCK (h) at 10.0 µM in the Eurofins Kinase panel"}, "[25]": {"molecular_target": "Tyrosine-protein kinase Fyn (Homo sapiens) (UniProt P06241)", "sequence (P06241 2-537 limits assumed)": "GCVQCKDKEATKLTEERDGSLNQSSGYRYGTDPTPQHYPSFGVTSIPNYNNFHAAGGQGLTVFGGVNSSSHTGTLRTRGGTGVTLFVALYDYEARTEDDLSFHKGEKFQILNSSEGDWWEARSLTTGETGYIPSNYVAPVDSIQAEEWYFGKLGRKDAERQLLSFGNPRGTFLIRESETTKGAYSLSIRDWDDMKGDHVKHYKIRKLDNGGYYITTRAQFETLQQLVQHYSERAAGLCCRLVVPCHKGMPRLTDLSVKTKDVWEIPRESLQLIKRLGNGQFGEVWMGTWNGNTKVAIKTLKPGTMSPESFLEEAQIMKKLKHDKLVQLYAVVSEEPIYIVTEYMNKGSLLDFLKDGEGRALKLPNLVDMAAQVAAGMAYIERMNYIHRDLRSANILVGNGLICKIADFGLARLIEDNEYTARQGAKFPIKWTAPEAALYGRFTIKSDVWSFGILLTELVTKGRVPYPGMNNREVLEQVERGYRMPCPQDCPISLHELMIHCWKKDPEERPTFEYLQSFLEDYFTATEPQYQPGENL", "experiment": "Inhibition of Protein Tyrosine Kinase, Fyn at 10 µM in the Eurofins-Panlabs enzyme assay (Eurofins_assay_172020)", "design": "substrate with concentration"}, "[26]": {"molecular_target": "Acetylcholinesterase (Homo sapiens) (UniProt P22303)"}, "[27]": {"molecular_target": "Melanocortin receptor 3 (Homo sapiens) (UniProt P41968)", "experiment": "Inhibition of Melanocortin MC3 at 10 µM in the Eurofins-Panlabs radioligand binding assay (Eurofins_assay_251300)", "design": "ligand concentration 0.035 nM"}, "[28]": {"molecular_target": "Calcium/calmodulin-dependent protein kinase type II subunit alpha (Homo sapiens) (UniProt Q9UQM7)", "experiment": "Inhibition of CaMKIIalpha(h) at 10.0 µM in the Eurofins Kinase panel"}, "[29]": {"molecular_target": "5-hydroxytryptamine receptor 1B (Homo sapiens) (UniProt P28222)", "experiment": "Inhibition of Serotonin (5-Hydroxytryptamine) 5-HT1B at 10 µM in the Eurofins-Panlabs radioligand binding assay (Eurofins_assay_271200)"}, "[30]": {"molecular_target": "Protein kinase C alpha type (Homo sapiens) (UniProt P17252)", "experiment": "Inhibition of Protein Serine/Threonine Kinase, PRKCA (PKCα) at 10 µM in the Eurofins-Panlabs enzyme assay (Eurofins_assay_180010)", "design": "substrate with concentration Histone, incubation time 10 min, incubation temperature 25 °C"}}, "data": [{"smiles": "O=c1n(Cc2cncn2-c2cccc(Cl)c2)nc(-c2ccc(Cl)cc2)n1C[C@H](O)C(F)(F)F", "values": [{"measurement": "inhibition", "setting": "[1]", "value": -7.62, "unit": "%"}, {"measurement": "inhibition", "setting": "[2]", "value": 10.1, "unit": "%"}, {"measurement": "inhibition", "setting": "[3]", "value": -4.95, "unit": "%"}, {"measurement": "inhibition", "setting": "[4]", "value": -9.85, "unit": "%"}, {"measurement": "inhibition", "setting": "[5]", "value": 19, "unit": "%"}, {"measurement": "inhibition", "setting": "[6]", "value": -3.28, "unit": "%"}, {"measurement": "inhibition", "setting": "[7]", "value": -8.35, "unit": "%"}, {"measurement": "inhibition", "setting": "[8]", "value": -0.44, "unit": "%"}, {"measurement": "inhibition", "setting": "[9]", "value": 4.92, "unit": "%"}, {"measurement": "inhibition", "setting": "[10]", "value": -0.03, "unit": "%"}]}, {"smiles": "C[C@H](O)c1nc(Cn2nc(-c3ccc(Cl)cc3)n(C[C@H](O)C(F)(F)F)c2=O)nn1-c1cccc(Cl)c1", "note": "[PECAVAPTAN]", "values": [{"measurement": "inhibition", "setting": "[11]", "value": 2, "unit": "%"}, {"measurement": "inhibition", "setting": "[12]", "value": 0, "unit": "%"}, {"measurement": "inhibition", "setting": "[13]", "value": -4.83, "unit": "%"}, {"measurement": "inhibition", "setting": "[14]", "value": 15, "unit": "%"}, {"measurement": "inhibition", "setting": "[15]", "value": 0, "unit": "%"}, {"measurement": "inhibition", "setting": "[16]", "value": 10, "unit": "%"}, {"measurement": "inhibition", "setting": "[17]", "value": -2.04, "unit": "%"}, {"measurement": "inhibition", "setting": "[18]", "value": 2.46, "unit": "%"}, {"measurement": "inhibition", "setting": "[19]", "value": -6.55, "unit": "%"}, {"measurement": "inhibition", "setting": "[20]", "value": -8.52, "unit": "%"}, {"measurement": "inhibition", "setting": "[21]", "value": 15, "unit": "%"}, {"measurement": "inhibition", "setting": "[22]", "value": -2.1, "unit": "%"}, {"measurement": "inhibition", "setting": "[23]", "value": -1, "unit": "%"}, {"measurement": "inhibition", "setting": "[24]", "value": -4.72, "unit": "%"}, {"measurement": "inhibition", "setting": "[25]", "value": -6, "unit": "%"}, {"measurement": "inhibition", "setting": "[26]", "value": 2, "unit": "%"}, {"measurement": "inhibition", "setting": "[27]", "value": 6, "unit": "%"}, {"measurement": "inhibition", "setting": "[28]", "value": -6.92, "unit": "%"}, {"measurement": "inhibition", "setting": "[29]", "value": -5, "unit": "%"}, {"measurement": "inhibition", "setting": "[30]", "value": -2, "unit": "%"}]}]}
